Test results reported in paper PMC6225178 (Molecules : A Journal of Synthetic Chemistry and Natural …, 2018).
pIC50: −log10 of the molar value.

test system: not listed separately; assay: DPPH assay; conditions: not given
Experimental: The 2,2-diphenyl-1-picrylhydrazyl (DPPH) assay was performed using a previously reported method with a modification. A series of samples consisting of 900 μL of the 0.04 mg/mL methanolic solution of DPPH and different concentrations of the compounds (100 μL) were prepared. Then, the absorbance at 517 nm was measured after a 30 min incubation at room temperature. The half maximal inhibitory concentration (IC50) was used as an indicating measure of the scavenging activity.

Compound	DPPH scavenging ability (in words)
CC(=O)/C=C/c1ccccc1O [Compound 6, 4-(2′-hydroxyphenyl)-3(E)-buten-2-one]	no scavenging ability
COC(=O)/C=C/c1ccc(O)cc1 [Compound 8, 3-(4′-Hydroxyphenyl)-(E)-propenoic acid methyl ester]	no scavenging ability
COC(=O)/C=C/c1ccccc1O [Compound 9, 3-(2.′-Hydroxyphenyl)-(E)-propenoic acid methyl ester]	no scavenging ability
COC(=O)/C=C/c1cccc(O)c1 [Compound 10, 3-(3′-Hydroxyphenyl)-(E)-propenoic acid methyl ester]	no scavenging ability
CC(=O)/C=C/c1cccc(O)c1 [Compound 15, 4-(3′-hydroxyphenyl)-3(E)-buten-2-one]	no scavenging ability
CC(=O)/C=C/c1ccc(O)cc1 [Compound 16, 4-(4′-hydroxyphenyl)-3(E)-buten-2-one]	no scavenging ability

same assay, conditions: 30 min incubation at room temperature, absorbance 517 nm; n.a. ^c = no protection detected; n.a. ^d = IC50 > 5 mM

Compound	pIC50
O=C(O)/C=C/c1ccc(O)c(O)c1 [CA, caffeic acid, reference compound]	4.49
COC(=O)/C=C/c1ccc(O)cc1O [Compound 11, 3-(2′,4′-dihydroxyphenyl)-(E)-propenoic acid methyl ester]	2.99
COC(=O)/C=C/c1ccc(O)c(O)c1O [Compound 12, 3-(2′,3′,4′-trihydroxyphenyl)-(E)-propenoic acid methyl ester]	4.73
COC(=O)/C=C/c1cc(O)c(O)cc1O [Compound 13, 3-(2′,4′,5′-trihydroxyphenyl)-(E)-propenoic acid methyl ester]	4.27
COC(=O)/C=C/c1ccc(O)c(OC)c1 [Compound 14, 3-(4′-hydroxy-3-metoxyphenyl)-(E)-propenoic acid methyl ester]	4.23
CC(=O)/C=C/c1ccc(O)cc1O [Compound 17, 4-(2′,4′-dihydroxyphenyl)-3(E)-buten-2-one]	3.16
CC(=O)/C=C/c1ccc(O)c(O)c1O [Compound 18, 4-(2′,3′,4′-trihydroxyphenyl)-3(E)-buten-2-one]	4.77
COc1cc(/C=C/C(C)=O)ccc1O [Compound 20, 4-(3′-methoxy-4′-hydroxyphenyl)-3(E)-buten-2-one]	4.21

test system: not listed separately; assay: Oxidation inhibition of the o/w emulsion (TBARS); conditions: not given
Experimental: The emulsion containing 15 mg of sorbitan sesquioleate, 50 mg of flaxseed oil, and 2 mL of 10 mM Tris-HCl buffer, pH 7.4, was prepared by the method. Determination of the oxidation inhibition of the o/w emulsion was carried out according to a procedure described previously, using 20 μL of the 1:1 (v/v) buffer-diluted emulsion, methanolic solution of each compound (final concentration 100 μM), and ammonium iron(II) sulfate hexahydrate (Mohr′s salt) (5 mM). Thiobarbituric acid reacting substances (TBARS) were determined according to [44].

Compound	antioxidant activity compared with caffeic acid (in words)
COC(=O)/C=C/c1ccc(O)c(O)c1O [Compound 12, 3-(2′,3′,4′-trihydroxyphenyl)-(E)-propenoic acid methyl ester]	higher antioxidant activity than caffeic acid
COC(=O)/C=C/c1cc(O)c(O)cc1O [Compound 13, 3-(2′,4′,5′-trihydroxyphenyl)-(E)-propenoic acid methyl ester]	higher antioxidant activity than caffeic acid
CC(=O)/C=C/c1ccc(O)c(O)c1O [Compound 18, 4-(2′,3′,4′-trihydroxyphenyl)-3(E)-buten-2-one]	higher antioxidant activity than caffeic acid

same assay, conditions: determined at 100 µM; oxidation induced with Mohr's salt 5 mM; TBARS; n.a. ^c = no protection detected

Compound	Inhibition of Oxidation of o/w Emulsion
O=C(O)/C=C/c1ccc(O)c(O)c1 [CA, caffeic acid, reference compound]	26.1 ± 2.9
COC(=O)/C=C/c1ccc(O)cc1 [Compound 8, 3-(4′-Hydroxyphenyl)-(E)-propenoic acid methyl ester]	22.7 ± 6.4
COC(=O)/C=C/c1ccccc1O [Compound 9, 3-(2.′-Hydroxyphenyl)-(E)-propenoic acid methyl ester]	2.6 ± 1.5
COC(=O)/C=C/c1cccc(O)c1 [Compound 10, 3-(3′-Hydroxyphenyl)-(E)-propenoic acid methyl ester]	18.4 ± 2.2
COC(=O)/C=C/c1ccc(O)cc1O [Compound 11, 3-(2′,4′-dihydroxyphenyl)-(E)-propenoic acid methyl ester]	33.7 ± 6.5
COC(=O)/C=C/c1ccc(O)c(O)c1O [Compound 12, 3-(2′,3′,4′-trihydroxyphenyl)-(E)-propenoic acid methyl ester]	55.5 ± 2
COC(=O)/C=C/c1cc(O)c(O)cc1O [Compound 13, 3-(2′,4′,5′-trihydroxyphenyl)-(E)-propenoic acid methyl ester]	38.6 ± 2.3
COC(=O)/C=C/c1ccc(O)c(OC)c1 [Compound 14, 3-(4′-hydroxy-3-metoxyphenyl)-(E)-propenoic acid methyl ester]	14.8 ± 2
CC(=O)/C=C/c1ccc(O)cc1 [Compound 16, 4-(4′-hydroxyphenyl)-3(E)-buten-2-one]	6.8 ± 4.4
CC(=O)/C=C/c1ccc(O)cc1O [Compound 17, 4-(2′,4′-dihydroxyphenyl)-3(E)-buten-2-one]	4.6 ± 1.3
CC(=O)/C=C/c1ccc(O)c(O)c1O [Compound 18, 4-(2′,3′,4′-trihydroxyphenyl)-3(E)-buten-2-one]	28.6 ±4
COc1cc(/C=C/C(C)=O)ccc1O [Compound 20, 4-(3′-methoxy-4′-hydroxyphenyl)-3(E)-buten-2-one]	7.9 ± 2.1

same assay, conditions: o/w emulsion model

Compound	protection against the induced oxidation (in words)
COC(=O)/C=C/c1ccc(O)c(O)c1O [Compound 12, 3-(2′,3′,4′-trihydroxyphenyl)-(E)-propenoic acid methyl ester]	highest protection against the induced oxidation
COC(=O)/C=C/c1cc(O)c(O)cc1O [Compound 13, 3-(2′,4′,5′-trihydroxyphenyl)-(E)-propenoic acid methyl ester]	highest protection against the induced oxidation
CC(=O)/C=C/c1ccc(O)c(O)c1O [Compound 18, 4-(2′,3′,4′-trihydroxyphenyl)-3(E)-buten-2-one]	highest protection against the induced oxidation

test system: normal human dermal fibroblast (NHDF) cell line; assay: Cell viability assay (MTT) in the NHDF cell line; assay type: cell-based; conditions: highest concentration
Experimental: The cytotoxicity test was performed as described in [44] using the NHDF cell line treated with the methanolic solution of the tested compounds to obtain the final concentrations of 12.5, 25, 50, 100, 200, or 250 µM, and incubation for 24 and 48 h. Cell viability was assessed by the MTT method.

Compound	effect on viability of NHDF cells after 48 h (in words)
COC(=O)/C=C/c1cc(O)c(O)cc1O [Compound 13, 3-(2′,4′,5′-trihydroxyphenyl)-(E)-propenoic acid methyl ester]	this effect after 48 h was not clearly noticeable
COc1cc(/C=C/C(C)=O)ccc1O [Compound 20, 4-(3′-methoxy-4′-hydroxyphenyl)-3(E)-buten-2-one]	this effect after 48 h was not clearly noticeable
